# Results as given in the kinase profiling compilation of Christmann-Franck et al. (2016).
# Tests used:
# Assay in all cases: radiometric filter-binding kinase assay
# [1] = test system: AKT1 (human), P31749 [S473D]
# [2] = test system: AKT2 (human), P31751 [S474D]
# AURKB (human) = AURKB (human) (UniProt Q96GD4)
# BRSK1 (human) = BRSK1 (human) (UniProt Q8TDC3)
# CHEK1 (human) = CHEK1 (human) (UniProt O14757)
# CHEK2 (human) = CHEK2 (human) (UniProt O96017)
# CaMK1 (human) = CaMK1 (human) (UniProt Q14012)
# DAPK1 (human) = DAPK1 (human) (UniProt P53355)
# EPHB4 (human) = EPHB4 (human) (UniProt P54760)
# FLT1 (human) = FLT1 (human) (UniProt P17948)
# LCK (mouse) = details: accession and sequence are those of the human protein
# MAP3K11 (human) = MAP3K11 (human) (UniProt Q16584)
# MAPK3 (human) = MAPK3 (human) (UniProt P27361)
# MAPK8 (human) = MAPK8 (human) (UniProt P45983)
# MAPK9 (human) = MAPK9 (human) (UniProt P45984)
# MAPKAPK5 (human) = MAPKAPK5 (human) (UniProt Q8IW41)
# MELK (human) = MELK (human) (UniProt Q14680)
# MKNK1 (human) = MKNK1 (human) (UniProt Q9BUB5)
# MKNK2 (human) = MKNK2 (human) (UniProt Q9HBH9)
# NUAK1 (human) = NUAK1 (human) (UniProt O60285)
# PAK6 (human) = PAK6 (human) (UniProt Q9NQU5)
# PHKG1 (human) = PHKG1 (human) (UniProt Q16816)
# PIM1 (human) = PIM1 (human) (UniProt P11309)
# PIM2 (human) = PIM2 (human) (UniProt Q9P1W9)
# PIM3 (human) = PIM3 (human) (UniProt Q86V86)
# PRKAA1 or PRKAA2 (rat) = details: accession and sequence are those of the human protein
# RPS6KA5 KD1 KD2 (human) = RPS6KA5 KD1 KD2 (human) (UniProt O75582)
# [3] = test system: RPS6KB1 (human), P23443 [T412E]
# Sequence of NUAK1 (human) (O60285 whole entry, looked up): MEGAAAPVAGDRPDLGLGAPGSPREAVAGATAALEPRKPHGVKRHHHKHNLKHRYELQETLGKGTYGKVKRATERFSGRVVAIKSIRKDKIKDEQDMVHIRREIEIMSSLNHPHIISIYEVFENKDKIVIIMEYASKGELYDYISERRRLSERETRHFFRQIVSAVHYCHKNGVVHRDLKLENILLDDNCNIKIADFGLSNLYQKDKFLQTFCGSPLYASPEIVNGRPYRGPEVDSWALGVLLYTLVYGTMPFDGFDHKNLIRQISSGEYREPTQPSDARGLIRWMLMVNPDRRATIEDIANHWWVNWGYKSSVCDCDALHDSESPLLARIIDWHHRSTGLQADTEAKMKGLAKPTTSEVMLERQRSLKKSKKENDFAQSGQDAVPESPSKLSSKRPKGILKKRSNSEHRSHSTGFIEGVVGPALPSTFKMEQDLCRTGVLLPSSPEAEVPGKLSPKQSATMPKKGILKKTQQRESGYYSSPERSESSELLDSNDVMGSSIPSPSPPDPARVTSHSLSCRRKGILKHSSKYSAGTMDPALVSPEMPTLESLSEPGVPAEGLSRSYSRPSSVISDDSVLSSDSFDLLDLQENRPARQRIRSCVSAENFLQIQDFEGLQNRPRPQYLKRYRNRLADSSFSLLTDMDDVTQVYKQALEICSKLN
# Sequence of MAPK9 (human) (P45984 whole entry, looked up): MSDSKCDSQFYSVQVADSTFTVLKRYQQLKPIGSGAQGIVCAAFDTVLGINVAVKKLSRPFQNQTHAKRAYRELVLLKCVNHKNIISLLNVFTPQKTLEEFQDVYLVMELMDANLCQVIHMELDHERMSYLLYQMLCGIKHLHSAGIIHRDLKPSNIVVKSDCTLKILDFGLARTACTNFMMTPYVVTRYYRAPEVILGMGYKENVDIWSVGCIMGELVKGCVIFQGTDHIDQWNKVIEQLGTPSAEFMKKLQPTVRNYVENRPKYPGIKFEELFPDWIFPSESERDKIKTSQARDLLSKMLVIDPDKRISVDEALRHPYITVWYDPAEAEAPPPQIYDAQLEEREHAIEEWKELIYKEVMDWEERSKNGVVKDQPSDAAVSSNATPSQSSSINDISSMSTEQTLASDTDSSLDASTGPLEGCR
# Sequence of RPS6KA5 KD1 KD2 (human) (O75582 whole entry, looked up): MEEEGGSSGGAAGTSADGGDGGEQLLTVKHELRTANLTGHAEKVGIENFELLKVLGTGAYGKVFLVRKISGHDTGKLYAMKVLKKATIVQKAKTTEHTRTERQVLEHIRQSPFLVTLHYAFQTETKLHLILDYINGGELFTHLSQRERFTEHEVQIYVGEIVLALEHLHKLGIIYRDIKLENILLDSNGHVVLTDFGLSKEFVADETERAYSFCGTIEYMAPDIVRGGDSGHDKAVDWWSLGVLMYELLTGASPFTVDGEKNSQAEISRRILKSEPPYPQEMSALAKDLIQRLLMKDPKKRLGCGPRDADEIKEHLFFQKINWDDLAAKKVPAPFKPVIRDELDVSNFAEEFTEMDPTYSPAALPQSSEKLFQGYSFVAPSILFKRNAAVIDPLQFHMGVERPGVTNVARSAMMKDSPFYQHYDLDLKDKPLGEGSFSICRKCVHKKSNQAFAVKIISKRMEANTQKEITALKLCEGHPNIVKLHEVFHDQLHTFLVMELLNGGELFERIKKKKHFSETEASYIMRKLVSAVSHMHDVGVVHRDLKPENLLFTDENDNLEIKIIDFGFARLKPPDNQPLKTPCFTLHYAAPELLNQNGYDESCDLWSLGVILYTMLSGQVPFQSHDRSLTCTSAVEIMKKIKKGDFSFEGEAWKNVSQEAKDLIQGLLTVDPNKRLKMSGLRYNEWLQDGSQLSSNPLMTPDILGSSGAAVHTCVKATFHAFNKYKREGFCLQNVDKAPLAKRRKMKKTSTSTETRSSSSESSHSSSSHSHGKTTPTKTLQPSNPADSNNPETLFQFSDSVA
# Sequence of PHKG1 (human) (Q16816 whole entry, looked up): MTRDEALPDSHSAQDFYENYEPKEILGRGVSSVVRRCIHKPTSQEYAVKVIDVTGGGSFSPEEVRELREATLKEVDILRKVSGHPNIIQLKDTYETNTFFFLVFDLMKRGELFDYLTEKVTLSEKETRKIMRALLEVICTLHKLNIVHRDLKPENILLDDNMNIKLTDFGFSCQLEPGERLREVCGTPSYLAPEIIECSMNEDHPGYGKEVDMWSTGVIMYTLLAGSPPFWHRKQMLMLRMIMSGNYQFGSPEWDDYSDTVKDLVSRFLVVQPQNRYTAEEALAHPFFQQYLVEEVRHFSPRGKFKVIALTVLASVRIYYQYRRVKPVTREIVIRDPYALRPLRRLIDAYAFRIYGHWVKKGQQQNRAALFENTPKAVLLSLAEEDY
# Sequence of CHEK2 (human) (O96017 whole entry, looked up): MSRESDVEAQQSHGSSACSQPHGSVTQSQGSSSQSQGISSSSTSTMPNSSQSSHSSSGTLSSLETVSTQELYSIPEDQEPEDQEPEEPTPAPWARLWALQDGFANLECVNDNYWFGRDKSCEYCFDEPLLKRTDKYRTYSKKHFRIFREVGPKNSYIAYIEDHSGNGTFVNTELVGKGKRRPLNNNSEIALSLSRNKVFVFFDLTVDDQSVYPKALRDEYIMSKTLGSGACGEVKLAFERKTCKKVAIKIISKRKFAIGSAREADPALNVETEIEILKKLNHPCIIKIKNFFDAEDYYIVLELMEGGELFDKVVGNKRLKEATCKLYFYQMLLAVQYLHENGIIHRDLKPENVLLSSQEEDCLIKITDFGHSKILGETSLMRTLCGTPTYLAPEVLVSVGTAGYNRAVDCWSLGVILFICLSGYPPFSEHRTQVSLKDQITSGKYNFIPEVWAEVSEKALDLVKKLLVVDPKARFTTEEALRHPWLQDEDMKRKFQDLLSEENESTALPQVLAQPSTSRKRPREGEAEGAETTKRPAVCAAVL
# Sequence of CaMK1 (human) (Q14012 whole entry, looked up): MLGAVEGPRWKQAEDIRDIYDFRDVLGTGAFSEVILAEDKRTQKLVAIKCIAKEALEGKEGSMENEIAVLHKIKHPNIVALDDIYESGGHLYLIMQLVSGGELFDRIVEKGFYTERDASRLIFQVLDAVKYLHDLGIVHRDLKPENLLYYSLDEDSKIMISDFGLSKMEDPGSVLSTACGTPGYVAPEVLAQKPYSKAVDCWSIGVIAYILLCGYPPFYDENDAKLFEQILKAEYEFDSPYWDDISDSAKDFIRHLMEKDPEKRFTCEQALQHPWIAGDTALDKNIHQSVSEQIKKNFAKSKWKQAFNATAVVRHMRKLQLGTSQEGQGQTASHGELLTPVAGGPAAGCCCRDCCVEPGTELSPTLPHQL
# Sequence of MKNK2 (human) (Q9HBH9 whole entry, looked up): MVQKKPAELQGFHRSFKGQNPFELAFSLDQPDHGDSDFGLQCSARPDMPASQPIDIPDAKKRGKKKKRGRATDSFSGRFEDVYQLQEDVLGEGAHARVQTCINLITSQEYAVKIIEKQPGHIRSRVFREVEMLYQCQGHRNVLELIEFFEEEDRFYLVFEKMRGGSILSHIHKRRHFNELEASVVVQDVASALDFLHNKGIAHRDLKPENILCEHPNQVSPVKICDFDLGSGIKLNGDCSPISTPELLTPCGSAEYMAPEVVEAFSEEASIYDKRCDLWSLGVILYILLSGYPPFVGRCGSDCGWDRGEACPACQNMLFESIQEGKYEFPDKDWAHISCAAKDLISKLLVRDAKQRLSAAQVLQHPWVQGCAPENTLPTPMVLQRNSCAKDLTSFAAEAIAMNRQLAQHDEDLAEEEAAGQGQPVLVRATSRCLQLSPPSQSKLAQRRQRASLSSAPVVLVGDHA
# Sequence of MAPK3 (human) (P27361 whole entry, looked up): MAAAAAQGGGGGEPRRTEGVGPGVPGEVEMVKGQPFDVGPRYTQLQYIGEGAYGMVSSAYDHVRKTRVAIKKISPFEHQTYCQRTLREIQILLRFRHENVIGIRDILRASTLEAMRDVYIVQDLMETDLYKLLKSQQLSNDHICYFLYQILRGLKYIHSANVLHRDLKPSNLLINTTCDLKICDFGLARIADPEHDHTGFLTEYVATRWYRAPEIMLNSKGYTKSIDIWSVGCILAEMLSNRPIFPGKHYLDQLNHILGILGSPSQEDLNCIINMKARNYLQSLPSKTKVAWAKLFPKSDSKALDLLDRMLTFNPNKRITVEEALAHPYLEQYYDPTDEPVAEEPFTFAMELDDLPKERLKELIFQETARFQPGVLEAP
# Sequence of MELK (human) (Q14680 whole entry, looked up): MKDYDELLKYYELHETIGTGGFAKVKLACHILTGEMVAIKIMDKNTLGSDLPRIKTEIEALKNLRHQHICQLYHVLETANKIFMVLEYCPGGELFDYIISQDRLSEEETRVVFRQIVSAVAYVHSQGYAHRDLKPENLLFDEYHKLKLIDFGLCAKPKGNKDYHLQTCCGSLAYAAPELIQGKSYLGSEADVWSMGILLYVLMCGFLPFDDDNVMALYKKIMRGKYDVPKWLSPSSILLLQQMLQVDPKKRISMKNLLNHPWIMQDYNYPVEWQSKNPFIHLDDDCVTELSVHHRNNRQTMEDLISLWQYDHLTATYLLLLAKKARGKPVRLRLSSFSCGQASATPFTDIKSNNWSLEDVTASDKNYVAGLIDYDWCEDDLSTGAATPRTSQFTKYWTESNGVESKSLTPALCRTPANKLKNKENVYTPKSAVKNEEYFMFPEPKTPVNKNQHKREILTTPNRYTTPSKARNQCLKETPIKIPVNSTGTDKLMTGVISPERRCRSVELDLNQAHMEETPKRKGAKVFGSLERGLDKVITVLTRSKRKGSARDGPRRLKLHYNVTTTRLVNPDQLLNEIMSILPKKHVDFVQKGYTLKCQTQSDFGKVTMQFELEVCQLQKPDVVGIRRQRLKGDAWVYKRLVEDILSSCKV
# Sequence of PIM2 (human) (Q9P1W9 whole entry, looked up): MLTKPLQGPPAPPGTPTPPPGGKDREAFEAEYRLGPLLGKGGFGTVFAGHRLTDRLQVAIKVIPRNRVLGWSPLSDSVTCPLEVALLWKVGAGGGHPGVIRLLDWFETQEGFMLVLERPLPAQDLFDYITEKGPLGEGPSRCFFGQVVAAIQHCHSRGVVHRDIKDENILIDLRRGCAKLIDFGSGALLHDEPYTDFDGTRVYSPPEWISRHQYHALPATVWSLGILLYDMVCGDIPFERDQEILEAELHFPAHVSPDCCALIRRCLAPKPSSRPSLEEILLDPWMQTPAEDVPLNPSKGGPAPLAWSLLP
compound,measurement,setting,value
CCN1CCN(Cc2ccc(NC(=O)c3ccc(C)c(Oc4ccnc5[nH]ccc45)c3)cc2C(F)(F)F)CC1,residual activity,[1]; compound 0.1 µM,105%
same,residual activity,[1]; compound 1.0 µM,100%
same,residual activity,[1]; compound 10.0 µM,69%
same,residual activity,[2]; compound 0.1 µM,105%
same,residual activity,[2]; compound 1.0 µM,114%
same,residual activity,[2]; compound 10.0 µM,49.3%
same,residual activity,AURKB (human); compound 0.1 µM,116%
same,residual activity,AURKB (human); compound 1.0 µM,108%
same,residual activity,AURKB (human); compound 10.0 µM,118%
same,residual activity,BRSK1 (human); compound 0.1 µM,101%
same,residual activity,BRSK1 (human); compound 1.0 µM,96.2%
same,residual activity,BRSK1 (human); compound 10.0 µM,109%
same,residual activity,CHEK1 (human); compound 0.1 µM,114%
same,residual activity,CHEK1 (human); compound 1.0 µM,105%
same,residual activity,CHEK1 (human); compound 10.0 µM,110%
same,residual activity,CHEK2 (human); compound 0.1 µM,117%
same,residual activity,CHEK2 (human); compound 1.0 µM,103%
same,residual activity,CHEK2 (human); compound 10.0 µM,67.9%
same,residual activity,CaMK1 (human); compound 0.1 µM,68.7%
same,residual activity,CaMK1 (human); compound 1.0 µM,17.2%
same,residual activity,CaMK1 (human); compound 10.0 µM,3.79%
same,residual activity,DAPK1 (human); compound 1.0 µM,80.9%
same,residual activity,DAPK1 (human); compound 10.0 µM,84.1%
same,residual activity,EPHB4 (human); compound 0.1 µM,97.3%
same,residual activity,EPHB4 (human); compound 1.0 µM,92.6%
same,residual activity,EPHB4 (human); compound 10.0 µM,42.7%
same,residual activity,FLT1 (human); compound 0.1 µM,69.5%
same,residual activity,FLT1 (human); compound 1.0 µM,15.2%
same,residual activity,FLT1 (human); compound 10.0 µM,2.74%
same,residual activity,LCK (mouse); compound 0.1 µM,12.7%
same,residual activity,LCK (mouse); compound 1.0 µM,0.851%
same,residual activity,LCK (mouse); compound 10.0 µM,5.77%
same,residual activity,MAP3K11 (human); compound 0.1 µM,95.1%
same,residual activity,MAP3K11 (human); compound 1.0 µM,50.3%
same,residual activity,MAP3K11 (human); compound 10.0 µM,8.66%
same,residual activity,MAPK3 (human); compound 0.1 µM,99%
same,residual activity,MAPK3 (human); compound 1.0 µM,103%
same,residual activity,MAPK3 (human); compound 10.0 µM,99.7%
same,residual activity,MAPK8 (human); compound 0.1 µM,93.8%
same,residual activity,MAPK8 (human); compound 1.0 µM,61.6%
same,residual activity,MAPK8 (human); compound 10.0 µM,14.4%
same,residual activity,MAPK9 (human); compound 0.1 µM,90.8%
same,residual activity,MAPK9 (human); compound 1.0 µM,21.8%
same,residual activity,MAPK9 (human); compound 10.0 µM,4.89%
same,residual activity,MAPKAPK5 (human); compound 0.1 µM,105%
same,residual activity,MAPKAPK5 (human); compound 1.0 µM,97.4%
same,residual activity,MAPKAPK5 (human); compound 10.0 µM,92.2%
same,residual activity,MELK (human); compound 0.1 µM,115%
same,residual activity,MELK (human); compound 1.0 µM,99.5%
same,residual activity,MELK (human); compound 10.0 µM,64.1%
same,residual activity,MKNK1 (human); compound 0.1 µM,98%
same,residual activity,MKNK1 (human); compound 1.0 µM,104%
same,residual activity,MKNK1 (human); compound 10.0 µM,82.7%
same,residual activity,MKNK2 (human); compound 0.1 µM,109%
same,residual activity,MKNK2 (human); compound 1.0 µM,112%
same,residual activity,MKNK2 (human); compound 10.0 µM,82.8%
same,residual activity,NUAK1 (human); compound 0.1 µM,85.8%
same,residual activity,NUAK1 (human); compound 1.0 µM,90.5%
same,residual activity,NUAK1 (human); compound 10.0 µM,84.9%
same,residual activity,PAK6 (human); compound 0.1 µM,104%
same,residual activity,PAK6 (human); compound 1.0 µM,90.4%
same,residual activity,PAK6 (human); compound 10.0 µM,94%
same,residual activity,PHKG1 (human); compound 0.1 µM,102%
same,residual activity,PHKG1 (human); compound 1.0 µM,112%
same,residual activity,PHKG1 (human); compound 10.0 µM,102%
same,residual activity,PIM1 (human); compound 0.1 µM,120%
same,residual activity,PIM1 (human); compound 1.0 µM,117%
same,residual activity,PIM1 (human); compound 10.0 µM,87.4%
same,residual activity,PIM2 (human); compound 0.1 µM,106%
same,residual activity,PIM2 (human); compound 1.0 µM,95%
same,residual activity,PIM2 (human); compound 10.0 µM,102%
same,residual activity,PIM3 (human); compound 0.1 µM,107%
same,residual activity,PIM3 (human); compound 1.0 µM,108%
same,residual activity,PIM3 (human); compound 10.0 µM,98.9%
same,residual activity,PRKAA1 or PRKAA2 (rat); compound 0.1 µM,106%
same,residual activity,PRKAA1 or PRKAA2 (rat); compound 1.0 µM,91.7%
same,residual activity,PRKAA1 or PRKAA2 (rat); compound 10.0 µM,85.2%
same,residual activity,RPS6KA5 KD1 KD2 (human); compound 0.1 µM,81.2%
same,residual activity,RPS6KA5 KD1 KD2 (human); compound 1.0 µM,45.8%
same,residual activity,RPS6KA5 KD1 KD2 (human); compound 10.0 µM,21.4%
same,residual activity,[3]; compound 0.1 µM,107%
same,residual activity,[3]; compound 1.0 µM,63.6%
same,residual activity,[3]; compound 10.0 µM,12.9%
